Experimental data published in patent US6509002B1, “Diagnostic agent for diabetes” (priority 1997, dated 2003).
Blank lines part the entries; values can stand above or below the molecule they belong to.

Test: ^13C breath test, oral administration, diabetic vs normal rats
Format: in vivo, rat
Settings: for slope from 12 to 17 min after the administration: 90 mg/kg orally, Example 38; for slope from 20 to 30 min after the administration / Δ^13C value (‰) at 30 min after the administration: 300 mg/kg orally, Example 6
Method: As test animals, male Sprague-Dawley strain (SD) neonatal rats were purchased from Nippon Charles River K. K. together with their lactating rats. They were bred at 23±2° C. under 55±10% humidity before use. Insulin secretion-deficient type diabetes was generated by administering streptozotocin (STZ) to neonatal rats (“Saibokogaku (Cell Engineering)”, Extra Issue, medical Experiment Manual Series, Strategy for Study of Diabetes, edited by Susumu Seino and Yoshikazu Oka, published by Shujunsha Co., Japan). STZ was subcutaneously administered to 2-day-old rats at a dose of 90 mg/kg. The STZ had been dissolved in a citrate buffer (pH 4.5) and was administered within 5 min after the dissolution. Two days after the administration, blood was collected by cardiac puncture, and the casual blood sugar level of each rat was measured with Terumo […] (blood sugar measurement set). […] However, their fasting blood sugar levels increase only slightly and remain at almost normal levels. According to the standards stipulated by the Japan Diabetes Society (1982), those individuals with a fasting blood sugar level (in venous whole blood) of […] or more are regarded as having diabetes (“[…] (Diabetes Test Manual)”, edited by Yukio […], published by Nanko-Do Co., Japan). Then, those rats with a fasting blood sugar level of less than 120 mg/dl (and with a casual blood sugar level of 250 mg/dl or more) which are not regarded as having diabetes in a fasting blood sugar level test were selected from the above-described rats with insulin secretion-deficient type diabetes and used as a model of light diabetes. Breath tests were carried out according to the method as described in (2)-1 or (2)-2 below on diabetic rats prepared in (1) above (8-10-week-old) and normal rats (8-10-week-old). Δ^13C (‰)=[(^13C t min-^13C 0 min)/^13C std]×1000 […] A blood sample was collected from the tail vein, and its sugar level was determined using Terumo […] (blood sugar measurement set). The exhalation was sucked with a stroke pump 18 (variable stroke pump VS-500; Shibata Scientific Technology) at a rate of 100-300 ml/min and introduced directly into a flow cell in ^13CO2 Analyzer EX-130S (Japan Spectroscopic Co., Ltd.) 20. […] Pure Drier ([…] Pure Inc.) was located between the rat holder and the stroke pump 18 to remove moisture in the exhalation (FIG. 1). […] The data output from the ^13CO2 analyzer 20 were incorporated into a personal computer 21 (Apple Power Macintosh 8500) after AD conversion. Using the data processing software Lab VIEW (National Instruments), data on ten points at every 100 msec were added up and averaged at intervals of 5 sec and then converted into ^13C atom %, Δ^13C (‰) and CO2 gas concentration (%), to thereby perform a continuous measurement ^13C breath test. […] Δ^13C (‰) was calculated by the formula described above.

[1] = diabetic rats, 50 mg/kg orally, Example 33
[2] = normal rats, 50 mg/kg orally, Example 33
[3] = diabetic rats, 60 mg/kg orally, Example 17
[4] = normal rats, 60 mg/kg orally, Example 17
[5] = diabetic rats, 30 mg/kg orally, Example 7
[6] = normal rats, 30 mg/kg orally, Example 7
[7] = diabetic rats, 45 mg/kg orally, Example 26
[8] = normal rats, 45 mg/kg orally, Example 26

Molecule: CCCCCCC[13C](=O)OCC(CO[13C](=O)CCCCCCC)O[13C](=O)CCCCCCC [1,1,1-^13C-trioctanoin]
time course of Δ^13C values (‰) [1]: continued increasing up to 30 min
Δ^13C value (‰) at 20 min after the administration [1]: 150.72±22.48 ‰
time course of Δ^13C values (‰) [2]: continued increasing up to 30 min
Δ^13C value (‰) at 20 min after the administration [2]: 110.16±16.08 ‰

Molecule: N[C@@H](C[13c]1ccc(O)cc1)C(=O)O [1-^13C-tyrosine]
slope from 5 to 10 min after the administration [3]: 79.62±19.90 ‰/5 min
time course of Δ^13C values (‰) [3]: increased up to about 20 min after the administration, but thereafter decreased gradually up to 30 min
Δ^13C value (‰) at 20 min after the administration [3]: 205.30±51.43 ‰
slope from 5 to 10 min after the administration [4]: 27.52±17.10 ‰/5 min
time course of Δ^13C values (‰) [4]: continued increasing up to 30 min
Δ^13C value (‰) at 20 min after the administration [4]: 73.96±35.10 ‰

Molecule: O=[13CH][C@H](O)[C@@H](O)[C@H](O)CO [1-^13C-xylose]
slope from 20 to 30 min after the administration (diabetic rats): 12.80±2.18 ‰/10 min
Δ^13C value (‰) at 30 min after the administration (diabetic rats): 23.40±7.60 ‰
slope from 20 to 30 min after the administration (normal rats): 4.61±1.40 ‰/10 min
Δ^13C value (‰) at 30 min after the administration (normal rats): 6.82±3.02 ‰

Molecule: NC(CSSCC(N)[13C](=O)O)[13C](=O)O (centres unmarked) [1-^13C-cystine]
slope from 5 to 10 min after the administration [7]: 46.82±2.94 ‰/5 min
time course of Δ^13C values (‰) [7]: continued increasing up to 30 min
Δ^13C value (‰) at 10 min after the administration [7]: 69.15±6.44 ‰
slope from 5 to 10 min after the administration [8]: 30.86±10.06 ‰/5 min
time course of Δ^13C values (‰) [8]: continued increasing up to 30 min
Δ^13C value (‰) at 10 min after the administration [8]: 45.26±8.68 ‰

Other lines, results leading:

slope from 12 to 17 min after the administration (diabetic rats): −8.40±7.67 ‰/5 min
slope from 12 to 17 min after the administration (normal rats): 16.05±7.71 ‰/5 min
Molecule: ethoxy-^13C-methacetin

^13C value (‰) at 30 min after the administration [5]: 144.50±23.27 ‰
time course of Δ^13C values (‰) [5]: continued increasing up to 20 min
^13C value (‰) at 30 min after the administration [6]: 213.89±4.66 ‰
time course of Δ^13C values (‰) [6]: continued increasing up to 20 min
Molecule: U-^13C-starch
